The text below walks through data of publication PMC8213057, “Targeting ALK2: An Open Science Approach to Developing Therapeutics for the Treatment of Diffuse Intrinsic Pontine Glioma” (Journal of Medicinal Chemistry, 2020).

What all share (experiment): biochemical
What all share (details): read-out: % enzyme activity, 1 μM; Run 1, Run 2

One experiment addresses T1, YSK4/MAP3K19 (Homo sapiens, UniProt Q56UN5).
T1 sequence (Q56UN5 1-1328): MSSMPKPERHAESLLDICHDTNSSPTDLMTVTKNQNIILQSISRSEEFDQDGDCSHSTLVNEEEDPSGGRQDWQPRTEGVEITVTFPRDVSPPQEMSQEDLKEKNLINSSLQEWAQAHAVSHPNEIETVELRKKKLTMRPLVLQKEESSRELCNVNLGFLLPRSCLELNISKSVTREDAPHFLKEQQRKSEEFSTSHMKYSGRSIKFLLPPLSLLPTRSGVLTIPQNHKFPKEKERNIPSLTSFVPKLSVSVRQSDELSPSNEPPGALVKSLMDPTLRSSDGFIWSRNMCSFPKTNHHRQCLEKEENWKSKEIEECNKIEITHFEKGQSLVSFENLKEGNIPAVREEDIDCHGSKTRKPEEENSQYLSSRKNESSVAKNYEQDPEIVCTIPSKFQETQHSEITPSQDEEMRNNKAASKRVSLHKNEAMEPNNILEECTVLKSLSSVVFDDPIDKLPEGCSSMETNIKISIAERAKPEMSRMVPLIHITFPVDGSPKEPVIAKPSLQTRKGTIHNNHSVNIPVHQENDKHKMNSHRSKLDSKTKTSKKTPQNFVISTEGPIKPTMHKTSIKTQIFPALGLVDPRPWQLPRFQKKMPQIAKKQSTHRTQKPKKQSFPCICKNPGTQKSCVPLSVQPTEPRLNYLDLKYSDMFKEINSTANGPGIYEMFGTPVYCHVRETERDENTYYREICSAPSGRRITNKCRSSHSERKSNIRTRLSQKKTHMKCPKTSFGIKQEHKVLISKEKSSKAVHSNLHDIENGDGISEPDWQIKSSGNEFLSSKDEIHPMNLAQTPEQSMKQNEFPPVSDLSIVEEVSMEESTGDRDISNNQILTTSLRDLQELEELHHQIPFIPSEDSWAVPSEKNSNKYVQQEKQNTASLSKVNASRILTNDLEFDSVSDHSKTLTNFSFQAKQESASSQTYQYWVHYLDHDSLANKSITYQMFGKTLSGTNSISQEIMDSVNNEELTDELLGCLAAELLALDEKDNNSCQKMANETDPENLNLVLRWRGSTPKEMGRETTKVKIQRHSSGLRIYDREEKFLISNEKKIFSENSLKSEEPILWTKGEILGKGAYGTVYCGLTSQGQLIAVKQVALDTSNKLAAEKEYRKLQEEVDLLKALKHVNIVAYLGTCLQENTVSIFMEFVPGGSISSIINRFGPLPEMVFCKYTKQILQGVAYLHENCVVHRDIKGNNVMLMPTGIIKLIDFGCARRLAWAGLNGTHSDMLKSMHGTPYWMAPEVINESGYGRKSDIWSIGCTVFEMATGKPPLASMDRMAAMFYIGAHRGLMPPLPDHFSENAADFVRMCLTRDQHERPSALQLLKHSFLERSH

A further experiment concerns the target T2, EPHA6 (Homo sapiens, UniProt Q9UF33).
T2 sequence (Q9UF33 23-1036): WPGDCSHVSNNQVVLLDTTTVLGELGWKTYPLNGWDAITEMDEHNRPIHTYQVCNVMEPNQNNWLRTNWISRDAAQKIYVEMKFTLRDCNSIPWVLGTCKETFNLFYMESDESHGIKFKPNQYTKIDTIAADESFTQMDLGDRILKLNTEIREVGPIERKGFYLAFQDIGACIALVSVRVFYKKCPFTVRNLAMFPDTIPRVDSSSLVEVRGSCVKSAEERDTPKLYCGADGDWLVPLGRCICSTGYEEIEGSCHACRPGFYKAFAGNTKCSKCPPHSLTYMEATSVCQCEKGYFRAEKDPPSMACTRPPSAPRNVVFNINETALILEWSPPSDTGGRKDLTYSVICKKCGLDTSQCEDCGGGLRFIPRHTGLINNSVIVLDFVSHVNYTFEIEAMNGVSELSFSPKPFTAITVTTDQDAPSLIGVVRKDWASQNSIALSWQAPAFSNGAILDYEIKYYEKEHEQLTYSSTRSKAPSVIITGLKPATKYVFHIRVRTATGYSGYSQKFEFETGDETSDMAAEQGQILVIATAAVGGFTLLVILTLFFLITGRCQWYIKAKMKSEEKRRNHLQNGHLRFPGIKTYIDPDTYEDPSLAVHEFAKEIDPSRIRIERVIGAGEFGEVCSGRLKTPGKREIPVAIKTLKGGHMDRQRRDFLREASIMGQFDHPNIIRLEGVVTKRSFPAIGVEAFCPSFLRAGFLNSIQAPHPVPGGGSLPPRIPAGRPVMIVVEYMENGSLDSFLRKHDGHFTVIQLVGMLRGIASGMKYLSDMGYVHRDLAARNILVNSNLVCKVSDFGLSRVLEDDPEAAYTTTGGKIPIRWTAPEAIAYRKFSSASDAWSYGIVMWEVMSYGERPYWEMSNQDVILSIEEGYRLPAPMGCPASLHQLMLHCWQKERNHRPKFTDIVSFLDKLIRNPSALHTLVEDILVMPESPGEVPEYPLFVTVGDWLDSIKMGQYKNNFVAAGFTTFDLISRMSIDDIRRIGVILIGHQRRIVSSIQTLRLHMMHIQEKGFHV

In a further experiment the target is T3, BRSK2 (Homo sapiens, UniProt Q8IWQ3).
T3 sequence (Q8IWQ3 1-736): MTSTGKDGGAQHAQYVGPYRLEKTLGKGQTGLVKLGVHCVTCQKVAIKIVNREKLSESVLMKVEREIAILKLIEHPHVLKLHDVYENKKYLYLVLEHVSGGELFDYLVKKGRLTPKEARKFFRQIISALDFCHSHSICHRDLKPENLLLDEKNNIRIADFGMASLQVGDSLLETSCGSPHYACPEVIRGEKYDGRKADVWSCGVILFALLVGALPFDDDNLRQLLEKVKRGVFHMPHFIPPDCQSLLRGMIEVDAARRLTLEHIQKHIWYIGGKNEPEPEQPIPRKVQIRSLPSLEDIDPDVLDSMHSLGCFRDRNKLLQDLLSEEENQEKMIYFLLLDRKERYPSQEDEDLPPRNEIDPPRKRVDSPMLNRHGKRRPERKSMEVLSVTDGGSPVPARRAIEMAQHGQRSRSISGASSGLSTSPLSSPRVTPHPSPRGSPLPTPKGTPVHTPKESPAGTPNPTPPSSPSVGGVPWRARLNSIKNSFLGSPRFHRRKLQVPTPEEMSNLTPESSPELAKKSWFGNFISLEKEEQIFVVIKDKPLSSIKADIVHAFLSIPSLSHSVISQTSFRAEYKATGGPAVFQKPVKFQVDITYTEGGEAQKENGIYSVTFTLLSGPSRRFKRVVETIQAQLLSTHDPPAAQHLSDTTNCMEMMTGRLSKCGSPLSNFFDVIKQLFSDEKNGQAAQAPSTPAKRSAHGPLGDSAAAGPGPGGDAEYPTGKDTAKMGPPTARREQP

As for `COc1cc(-c2cncc(-c3ccc(N4CCN(C)CC4)cc3)c2C)cc(F)c1C(N)=O` [Compound 26a, 2-Fluoro-6-methoxy-4-(4-methyl-5-(4-(4-methylpiperazin-1-yl)phenyl)pyridin-3-yl)benzamide], the remaining activity at 1 µM on YSK4/MAP3K19 worked out at 98.2%; at EPHA6, 105%; at BRSK2, 61.3%.

Take `COc1cc(-c2cncc(-c3ccc(N4C[C@@H](C)N(C)[C@@H](C)C4)cc3)c2C)cc(F)c1C(N)=O` [Compound 26c, 2-Fluoro-6-methoxy-4-(4-methyl-5-(4-((3R,5S)-3,4,5-trimethylpiperazin-1-yl)phenyl)pyridin-3-yl)benzamide]: the remaining activity at 1 µM was 97% on YSK4/MAP3K19, 106% at EPHA6 and 77.9% on BRSK2.
